Source: patent US11491120B2, “Pharmacological prophylactics against stress-induced affective disorders in females” (The Trustees of Columbia University in the City of New York, priority 2017, dated 2022)

Assays:
female 129S6/SvEv mice [1] = assay: Elevated plus maze (EPM); format: in vivo, mouse; details: 10 mg/kg, 1 week prophylactic drug, learned helplessness stress
Experimental: The EPM was administered as previously described (58), with the exception that videos were scored using ANY-maze behavioral tracking software (Stoelting Co., Wood Dale, Ill.).
We have previously shown that prophylactic (R,S)-ketamine attenuates helpless behavior in male mice (18). To validate these findings in females, female mice were administered saline, (R,S)-ketamine, or (2R,6R)-HNK one week prior to LH training (FIG. 4A). Two weeks later, mice were tested for escape latency and for depressive- and anxiety-like behaviors in the FST and elevated plus maze (EPM). CFC was again administered following these behavioral assays.

female 129S6/SvEv mice [2] = assay: Contextual fear conditioning (CFC), 3-shock, freezing in training and context re-exposure; details: for Freezing during 3-shock CFC training vs saline: 2.5, 10, or 30 mg/kg, 1 week before CFC
[3] = Contextual Fear Conditioning Re-exposure, Dunnett test Sal vs. drug (2.5), 1 week prophylactic drug
[4] = Contextual Fear Conditioning Re-exposure, Dunnett test Sal vs. drug (10), 1 week prophylactic drug
[5] = Contextual Fear Conditioning Re-exposure, Dunnett test Sal vs. drug (30), 1 week prophylactic drug
[6] = Contextual Fear Conditioning Training, Dunnett test Sal vs. drug (2.5), 1 week prophylactic drug
[7] = Contextual Fear Conditioning Training, Dunnett test Sal vs. drug (10), 1 week prophylactic drug
[8] = Contextual Fear Conditioning Training, Dunnett test Sal vs. drug (30), 1 week prophylactic drug
[9] = Ovariectomized cohort, 1 week prophylactic drug, Contextual Fear Conditioning Re-exposure, FIG. 10B, Sham mice, K (10), (2R,6R)-HNK (0.025)
[10] = Ovariectomized cohort, 1 week prophylactic drug, Contextual Fear Conditioning Re-exposure, FIG. 10C, Sham mice, K (10), (2R,6R)-HNK (0.025)

CNC1(c2ccccc2Cl)CCCCC1=O (racemic) [(R,S)-ketamine, (RS)-2-(2-chlorophenyl)-2-(methylamino)cyclohexanone]
* (significance), Sal vs. drug, Fisher's PLSD: Time in Closed Arms Average (min 1-6), Elevated Plus Maze (female 129S6/SvEv mice [1]): * (* p<0.05)
* (significance), Sal vs. drug, Fisher's PLSD: Time in Open Arms Average (min 1-6), Elevated Plus Maze (female 129S6/SvEv mice [1]): * (* p<0.05)
P, Sal vs. drug, Fisher's PLSD: Time in Closed Arms Average (min 1-6), Elevated Plus Maze (female 129S6/SvEv mice [1]): 0.0186
P, Sal vs. drug, Fisher's PLSD: Time in Open Arms Average (min 1-6), Elevated Plus Maze (female 129S6/SvEv mice [1]): 0.0147
p, Sal vs. drug, Dunnett test: Freezing (Average), Contextual Fear Conditioning Re-exposure (female 129S6/SvEv mice [2]; 2.5 mg/kg, 1 week prophylactic drug): 0.7546
p, Sal vs. drug, Dunnett test: Freezing (Average), Contextual Fear Conditioning Re-exposure (female 129S6/SvEv mice [2]; 10 mg/kg, 1 week prophylactic drug): 0.8986
p, Sal vs. drug, Dunnett test: Freezing (Average), Contextual Fear Conditioning Re-exposure (female 129S6/SvEv mice [2]; 30 mg/kg, 1 week prophylactic drug): 0.8647
Freezing during 3-shock CFC training vs saline (female 129S6/SvEv mice [2]; female mice): did not alter freezing
Freezing during 3-shock CFC training vs saline (female 129S6/SvEv mice [2]; female mice, listed as (R, S)-ketamine): did not alter fear encoding
Freezing during CFC training vs saline (female 129S6/SvEv mice [2]; 2.5 and 10 mg/kg, 3 days before CFC, female mice): significantly increased freezing compared to saline
Freezing during CFC training vs saline (female 129S6/SvEv mice [2]; 2.5 and 10 mg/kg, 3 days before CFC, female mice; listed as R,S)-ketamine): significantly increased freezing during the last minute
Freezing during context re-exposure vs saline (female 129S6/SvEv mice [2]; 3 days before CFC, female mice): do not affect freezing during re-exposure
p, Freezing (min 1-5) (female 129S6/SvEv mice [2]; [3]): 0.7546
p, Freezing (min 2) (female 129S6/SvEv mice [2]; [3]): 0.9996
p, Freezing (min 3) (female 129S6/SvEv mice [2]; [3]): 0.6267
p, Freezing (min 4) (female 129S6/SvEv mice [2]; [3]): 0.1951
p, Freezing (min 5) (female 129S6/SvEv mice [2]; [3]): 0.4912
p, Freezing (min 1-5) (female 129S6/SvEv mice [2]; [4]): 0.8986
p, Freezing (min 2) (female 129S6/SvEv mice [2]; [4]): 0.9240
p, Freezing (min 3) (female 129S6/SvEv mice [2]; [4]): 0.9864
p, Freezing (min 4) (female 129S6/SvEv mice [2]; [4]): 0.6904
p, Freezing (min 5) (female 129S6/SvEv mice [2]; [4]): 0.6667
p, Freezing (min 1-5) (female 129S6/SvEv mice [2]; [5]): 0.8647
p, Freezing (min 2) (female 129S6/SvEv mice [2]; [5]): 0.6079
p, Freezing (min 3) (female 129S6/SvEv mice [2]; [5]): 0.8139
p, Freezing (min 4) (female 129S6/SvEv mice [2]; [5]): 0.9885
p, Freezing (min 5) (female 129S6/SvEv mice [2]; [5]): 0.9996
p, Freezing (min 1-5) (female 129S6/SvEv mice [2]; [6]): 0.5398
p, Freezing (min 4) (female 129S6/SvEv mice [2]; [6]): 0.9957
p, Freezing (min 5) (female 129S6/SvEv mice [2]; [6]): 0.2720
p, Freezing (min 1-5) (female 129S6/SvEv mice [2]; [7]): >0.9999
p, Freezing (min 4) (female 129S6/SvEv mice [2]; [7]): 0.9996
p, Freezing (min 5) (female 129S6/SvEv mice [2]; [7]): 0.9996
p, Freezing (min 1-5) (female 129S6/SvEv mice [2]; [8]): 0.9998
p, Freezing (min 4) (female 129S6/SvEv mice [2]; [8]): >0.9999
p, Freezing (min 5) (female 129S6/SvEv mice [2]; [8]): 0.9997
p, Freezing (min 1-5), Fisher's PLSD, OVX Sal vs OVX drug (female 129S6/SvEv mice [2]; Ovariectomized cohort, 1 week prophylactic drug, Contextual Fear Conditioning Re-exposure, FIG. 10B, OVX mice, K (10), (2R,6R)-HNK (0.025)): 0.1532
* (significance), Freezing (min 1-5), Fisher's PLSD, Sham Sal vs Sham drug (female 129S6/SvEv mice [2]; [9]): * (* p<0.05)
p, Freezing (min 1-5), Fisher's PLSD, Sham Sal vs Sham drug (female 129S6/SvEv mice [2]; [9]): 0.0290
p, Freezing (min 1-5), Fisher's PLSD, Sham drug vs OVX drug (female 129S6/SvEv mice [2]; Ovariectomized cohort, 1 week prophylactic drug, Contextual Fear Conditioning Re-exposure, FIG. 10B, Sham vs OVX, same drug, K (10), (2R,6R)-HNK (0.025)): 0.7813
p, Freezing Average (min 1-5), Fisher's PLSD, OVX Sal vs OVX drug (female 129S6/SvEv mice [2]; Ovariectomized cohort, 1 week prophylactic drug, Contextual Fear Conditioning Re-exposure, FIG. 10C, OVX mice, K (10), (2R,6R)-HNK (0.025)): 0.1532
* (significance), Freezing Average (min 1-5), Fisher's PLSD, Sham Sal vs Sham drug (female 129S6/SvEv mice [2]; [10]): * (* p<0.05)
p, Freezing Average (min 1-5), Fisher's PLSD, Sham Sal vs Sham drug (female 129S6/SvEv mice [2]; [10]): 0.0290
p, Freezing Average (min 1-5), Fisher's PLSD, Sham drug vs OVX drug (female 129S6/SvEv mice [2]; Ovariectomized cohort, 1 week prophylactic drug, Contextual Fear Conditioning Re-exposure, FIG. 10C, Sham vs OVX, same drug, K (10), (2R,6R)-HNK (0.025)): 0.7813
